# According to patent US20120207740A1, “Method for Treating Pervasive Development Disorders” (CUREMARK, LLC, priority 1999, published 2012):
# Tests used:
# [1] = test system: children diagnosed as having autism; assay: Fecal Chymotrypsin Test before and after secretin infusion in 16 autistic children (Experiment 1); type: in vivo, human; conditions: each of 16 autistic children; approximately one week after first secretin infusion, 1 U/kg IV
# Description: (§1) In this experiment, 16 children diagnosed as having autism were administered the following Fecal Chymotrypsin Test in accordance with an embodiment of the invention. First, approximately 2 grams of stool were collected from each child and placed in a sterile container (although it is to be understood that any quantity of stool may be collected, as 2 grams of stool is not a required amount). Each stool sample was then analyzed using, e.g., an enzymatic photospectrometry analysis as is known by those skilled in the art, to determine the level of fecal chymotrypsin in the stool. Although the enzymatic photospectrophotometry process is preferred, any suitable conventional method may be used for measuring the fecal chymotrypsin levels. The measured chymotrypsin levels of the 16 autistic children are illustrated in FIG. 13.
# After determining the chymotrypsin levels of the stools, each of these levels were compared with threshold chymotrypsin levels to determine if the child was likely to benefit from secretin administration. By way of example, with the fecal chymotrypsin tests of the stool samples being performed at 30° C., normal levels of chymotrypsin are deemed to lie above 8.4 U/gram, whereas pathologically abnormal levels are deemed to lie below 4.2 U/gram. […]
# [2] = test system: children diagnosed as having autism; assay: CARS (Childhood Autism Rating Scale) test pre- and post-secretin administration (Experiment 1); type: in vivo, human; conditions: 16 autistic children
# Description: Upon determining that a given child was likely to benefit from secretin administration based on the results of the fecal chymotrypsin test, the child was administered a CARS (Childhood Autism Rating Scale) test prior to being scheduled for secretin infusion.
# For each of the 16 autistic children tested, a preferred secretin infusion process according to the present invention was performed involving the administering of 1 U/kg of body weight of Secretin-Ferring for a period of nine months at intervals of approximately 6 weeks. In addition, another CARS test was administered to each of the 16 autistic children 3 weeks post secretin administration to determine if their autism had changed post infusion.
# A preferred secretin infusion process includes the initial step of prepping an arm of the candidate child with an IV injection of saline. A test dose of 1 U of Secretin-Ferring is then administered to the child. Approximately one minute after infusion, the child is examined for signs of allergic reaction including rash, increased heart rate, and increase of blood pressure. […] Subsequently, each child receives a 1 U/kg of body weight infusion of Secretin-Ferring approximately every 6 weeks for 9 months. It is to be understood that any commercially available form of secretin may be used.
# [3] = test system: autistic children with abnormal fecal chymotrypsin levels; assay: Fecal chymotrypsin levels of 37 autistic children administered secretin over 6 months (Experiment 2); type: in vivo, human; conditions: 6 Months Post-Secretin Administration, of 37 children
# Description: as §1
# After determining the chymotrypsin levels of the stools, each of these levels were compared with threshold chymotrypsin levels to determine if the child was likely to benefit from secretin administration. By way of example, with the fecal chymotrypsin tests of the stool samples being performed at 30° C., normal levels of chymotrypsin are deemed to lie above 8.4 U/gram, whereas pathologically abnormal levels are deemed to lie below 4.2 U/gram. In addition, chymotrypsin levels between 8.4 U/gram and 4.2 U/gram are considered equivocal, and further testing of the individual's fecal chymotrypsin levels over a period of time should be performed.
# A preferred secretin infusion process includes the initial step of prepping an arm of the candidate child with an IV injection of saline. A test dose of 1 U of Secretin-Ferring is then administered to the child. […]
# In this experiment, 37 autistic children with abnormal fecal chymotrypsin levels were administered secretin over the course of 6 months using the secretin infusion process described above. Their fecal chymotrypsin (FC) levels were measured weekly using the fecal chymotrypsin test described above.
# [4] = test system: children diagnosed with Autism; conditions: secretin given as diagnostic procedure during upper gastrointestinal endoscopy; Horvath et al. 1998; cited from earlier work
substance,measurement,setting,value
secretin,fecal chymotrypsin level post-secretin administration versus pre-secretin,[1],increased
same,CARS component scores (except fear component),[2]; 3 weeks post infusion,demonstrated improvement
same,overall CARS scores post-secretin versus pre-secretin,[2]; approximately 3 weeks after first secretin administration,overall decrease
same,# Autistic Children w/Equivocal FC levels,[3]; 0 equivocal pre-secretin,2
same,# Autistic Children w/normal FC levels,[3]; 0 normal pre-secretin,34
same,# Autistic Children w/Abnormal FC levels,[3]; 37 abnormal pre-secretin,1
same,symptoms associated with Autism,[4],ameliorating the symptoms
